Results reported in patent publication US12486471B2, “Perfume formulation for delivery system” (FIRMENICH SA, priority 2019, dated 2025).

Test: Odor threshold concentration (Log T / Log ODT) by gas chromatograph sniff port with panelists
Set-up: species or system human
Description: “High impact perfume raw materials” should be understood as perfume raw materials having a Log T<−4. The odor threshold concentration of a chemical compound is determined in part by its shape, polarity, partial charges and molecular mass. For convenience, the threshold concentration is presented as the common logarithm of the threshold concentration, i.e., Log [Threshold] (“Log T”).
The odor threshold concentration of a perfuming compound is determined by using a gas chromatograph (“GC”). Specifically, the gas chromatograph is calibrated to determine the exact volume of the perfume oil ingredient injected by the syringe, the precise split ratio, and the hydrocarbon response using a hydrocarbon standard of known concentration and chain-length distribution. The air flow rate is accurately measured and, assuming the duration of a human inhalation to last 12 seconds, the sampled volume is calculated. […] To determine the threshold concentration, solutions are delivered to the sniff port at the back-calculated concentration. A panelist sniffs the GC effluent and identifies the retention time when odor is noticed. The average across all panelists determines the odor threshold concentration of the perfuming compound. The determination of odor threshold is described in more detail in C.

[1] = ingredient of Perfume oil C (Table 5)
[2] = ingredient of Perfume oil D (Table 7)
[3] = ingredient of Perfume oil A (Table 1)
[4] = ingredient of Perfume oil B (Table 3)

CC/C=C\CCOC(=O)C(C)C [(Z)-3-HEXENYL ISOBUTYRATE]
Log ODT [1]: >−4

(+)-(3S)-3-[(1R)-4-METHYL-3-CYCLOHEXEN-1-YL]BUTANAL (A) + (+)-(3R)-3-[(1R)-4-METHYL-3-CYCLOHEXEN-1-YL]BUTANAL
Log ODT [2]: >−4

CCCCCCCCCC(C)C=O (racemic) [(+−)-2-METHYLUNDECANAL]
Log ODT [3]: <−4 | Log ODT [4]: <−4 | Log ODT [1]: <−4 | Log ODT [2]: <−4

CCCCCCCCCC=O [DECANAL]
Log ODT [2]: >−4

CC/C=C(\C)C(O)CCCCC (racemic) [(+−)-(E)-4-METHYL-3-DECEN-5-OL]
Log ODT [3]: >−4 | Log ODT [4]: >−4

CC(=O)O[C@@H]1CC2CC[C@]1(C)C2(C)C [(1R,2R)-1,7,7-TRIMETHYL-BICYCLO[2.2.1]HEPT-2-YL ACETATE]
Log ODT [1]: >−4 | Log ODT [2]: >−4

CC(=O)/C=C/C1=C(C)CCCC1(C)C
Log ODT [3]: <−4

CC(=O)OCCC(C)CCC=C(C)C (centres unmarked) [37-DIMETHYL-6-OCTENYL ACETATE]
Log ODT [1]: >−4

(+−)-4-METHYLENE-2-PHENYLTETRAHYDRO-2H-PYRAN (A) + (+−)-4-METHYL-6-PHENYL-3,6-DIHYDRO-2H-PYRAN (B) + (+−)-4-METHYL-2-PHENYL-3,6-DIHYDRO-2H-PYRAN (C)
Log ODT [4]: <−4 | Log ODT [2]: <−4

.ALPHA.-DIHYDROTERPINEOL (A) + BETA.-DIHYDROTERPINEOL (B)
Log ODT [4]: >−4

10-UNDECENAL (A) + (9E)-9-UNDECENAL (B) + (9Z)-9-UNDECENAL (C)
Log ODT [4]: <−4 | Log ODT [1]: <−4

CC1(C)CC=C(CCC=O)CC1
Log ODT [3]: >−4

CC12CCC(CC1)C(C)(C)O2
Log ODT [4]: >−4 | Log ODT [1]: >−4 | Log ODT [2]: >−4

1-OXA-12-CYCLOHEXADECEN-2-ONE (A) + 1-OXA-13-CYCLOHEXADECEN-2-ONE (B)
Log ODT [1]: >−4

C=CCCC(=O)C1=CCCC(C)(C)C1
Log ODT [4]: <−4 | Log ODT [1]: <−4

CCOC(=O)C(C)CC (racemic) [(+−)-ETHYL 2-METHYLBUTANOATE]
Log ODT [3]: >−4

CCCCCCOC(C)=O [HEXYL ACETATE]
Log ODT [3]: >−4

CCCCC[C@H]1C(=O)CC[C@@H]1CC(=O)OC (racemic) [METHYL 2-((1RS,2RS)-3-OXO-2-PENTYLCYCLOPENTYL)ACETATE]
Log ODT [3]: >−4 | Log ODT [1]: >−4

CC/C=C\CCOC(C)=O [(Z)-3-HEXENYL ACETATE]
Log ODT [1]: >−4

CC(=O)OCCc1ccccc1 [2-PHENYLETHYL ACETATE]
Log ODT [3]: >−4

CC(C)=CCCC(C)C=O (racemic)
Log ODT [3]: >−4 | Log ODT [4]: >−4

CC1=CC2CC(C=O)C1CC2C(C)C (centres unmarked) [8-ISOPROPYL-6-METHYL-BICYCLO[2.2.2]OCT-5-ENE-2-CARBALDEHYDE]
Log ODT [4]: <−4 | Log ODT [2]: <−4

(1RS,2RS)-2,4-DIMETHYL-3-CYCLOHEXENE-1-CARBALDEHYDE (A) + (1RS,2SR)-2,4-DIMETHYL-3-CYCLOHEXENE-1-CARBALDEHYDE (B)
Log ODT [3]: >−4 | Log ODT [1]: >−4

(2RS,4SR)-4-METHYL-2-(2-METHYL-1-PROPEN-1-YL)TETRAHYDRO-2H-PYRAN (A) + (2RS,4RS)-4-METHYL-2-(2-METHYL-1-PROPEN-1-YL)TETRAHYDRO-2H-PYRAN (B)
Log ODT [3]: >−4 | Log ODT [4]: >−4

CCCCCCCCCC(C)=O [Capsule 2-UNDECANONE, 2-UNDECANONE]
Log ODT [4]: >−4

2-METHYLBUTYL SALICYLATE (A) + PENTYL SALICYLATE (B)
Log ODT [3]: >−4

(+−)-(3E)-3-METHYL-4-(2,6,6-TRIMETHYL-2-CYCLOHEXEN-1-YL)-3-BUTEN-2-ONE (A) + (+−)-(1E)-1-(2,6,6-TRIMETHYL-2-CYCLOHEXEN-1-YL)-1-PENTEN-3-ONE (B)
Log ODT [1]: <−4

(2Z)-1,1-DIETHOXY-3,7-DIMETHYL-2,6-OCTADIENE (A) + (2E)-1,1-DIETHOXY-3,7-DIMETHYL-2,6-OCTADIENE (B)
Log ODT [4]: >−4 | Log ODT [2]: >−4

COCCc1ccccc1 [(2-METHOXYETHYL)BENZENE]
Log ODT [4]: >−4

C=CC(C)(CCC=C(C)C)OC(C)=O (racemic) [(+−)-1,5-DIMETHYL-1-VINYL-4-HEXENYL ACETATE]
Log ODT [3]: >−4 | Log ODT [1]: >−4

CC(C)c1cccc(C(C)CC=O)c1 (racemic) [(+−)-3-(3-ISOPROPYL-1-PHENYL)BUTANAL]
Log ODT [4]: <−4

CC1=CCC2C[C@@H]1C2(C)C (single isomer, unassigned; (-))
Log ODT [1]: >−4

COc1ccc(C)cc1 [1-METHOXY-4-METHYLBENZENE]
Log ODT [3]: >−4

CCCCCCCC1CCC(=O)O1 (racemic) [(+−)-5-HEPTYLDIHYDRO-2(3H)-FURANONE]
Log ODT [1]: <−4

O=C1CCCCCCCCCCCCCCO1 [OXACYCLOHEXADECAN-2-ONE]
Log ODT [1]: >−4

TRICYCLO[5.2.1.0~2,6~]DEC-3-EN-8-YL ACETATE (A) + TRICYCLO[5.2.1.0~2,6~]DEC-4-EN-8-YL ACETATE (B)
Log ODT [3]: >−4 | Log ODT [4]: >−4

C=CC(C)CCCC(C)(C)O (racemic)
Log ODT [3]: >−4

COc1ccc2ccccc2c1 [2-METHOXYNAPHTHALENE]
Log ODT [1]: <−4 | Log ODT [2]: <−4

C/C=C/C(=O)[C@@H]1[C@@H](C)C=CCC1(C)C (racemic)
Log ODT [3]: <−4 | Log ODT [4]: <−4

CC1=CCC(C(C)(C)S)CC1 (racemic) [(+−)-2-(4-METHYL-3-CYCLOHEXEN-1-YL)-2-PROPANETHIOL]
Log ODT [4]: <−4 | Log ODT [1]: <−4

COc1nccnc1CCCC(C)C
Log ODT [4]: <−4

CC1(C)CCC[C@]2(C)[C@H]3CCO[C@]3(C)CC[C@@H]12 [(−)-(3AR,5AS,9AS,9BR)-3A,6,6,9A-TETRAMETHYLDODECAHYDRONAPHTHO[2,1-B]FURAN]
Log ODT [4]: <−4 | Log ODT [2]: <−4

CCCCCCCC=O [OCTANAL]
Log ODT [2]: >−4

3,7-DIMETHYL-2,6-NONADIENENITRILE (A) + 3,7-DIMETHYL-3,6-NONADIENENITRILE (B)
Log ODT [1]: >−4

CCCCCCOC(=O)c1ccccc1O [HEXYL 2-HYDROXYBENZOATE]
Log ODT [3]: >−4

CC(C)CCCC(C)CCO (racemic)
Log ODT [4]: >−4

c1ccc(Oc2ccccc2)cc1 [1,1′-OXYDIBENZENE]
Log ODT [3]: >−4

3-(4-ETHYLPHENYL)-2,2-DIMETHYLPROPANAL (A) + 3-(2-ETHYLPHENYL)-2,2-DIMETHYLPROPANAL (B)
Log ODT [4]: >−4

3,5,6-TRIMETHYL-3-CYCLOHEXENE-1-CARBALDEHYDE (A) + 2,4,6-TRIMETHYL-3-CYCLOHEXENE-1-CARBALDEHYDE (B)
Log ODT [1]: >−4
